Results published in PubChem BioAssay (NCI).
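Each compound was tested at five concentrations against cells in 96-well plates for 48 hours. TGI denotes the concentration required for complete inhibition of growth.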

Legend:
Test in all cases: NCI anticancer screen, dose series, 48 h
SN12C renal = test system: SN12C renal
MDA-N = test system: MDA-N
IGROV1 ovarian = test system: IGROV1 ovarian
EKVX NSCLC = test system: EKVX NSCLC
NCI-H226 lung = test system: NCI-H226 lung
BT-549 breast = test system: BT-549 breast
HOP-92 NSCLC = test system: HOP-92 NSCLC
HT29 colon = test system: HT29 colon
OVCAR-8 ovarian = test system: OVCAR-8 ovarian
SNB-75 CNS = test system: SNB-75 CNS
A498 renal = test system: A498 renal
KM12 colon = test system: KM12 colon
MDA-MB-231 breast = test system: MDA-MB-231 breast
SR leukemia = test system: SR leukemia
OVCAR-4 ovarian = test system: OVCAR-4 ovarian
T-47D breast = test system: T-47D breast
M14 melanoma = test system: M14 melanoma
ACHN renal = test system: ACHN renal
SF-268 CNS = test system: SF-268 CNS
SK-MEL-2 melanoma = test system: SK-MEL-2 melanoma
MALME-3M melanoma = test system: MALME-3M melanoma
CAKI-1 renal = test system: CAKI-1 renal
HCT-15 colon = test system: HCT-15 colon
TK-10 renal = test system: TK-10 renal
SK-OV-3 ovarian = test system: SK-OV-3 ovarian
K-562 leukemia = test system: K-562 leukemia
PC-3 prostate = test system: PC-3 prostate
SK-MEL-5 melanoma = test system: SK-MEL-5 melanoma
HCC-2998 colon = test system: HCC-2998 colon
NCI-H522 lung = test system: NCI-H522 lung
CCRF-CEM leukemia = test system: CCRF-CEM leukemia
RXF 393 renal = test system: RXF 393 renal
786-0 renal = test system: 786-0 renal
MDA-MB-435 = test system: MDA-MB-435
MOLT-4 leukemia = test system: MOLT-4 leukemia
UACC-257 melanoma = test system: UACC-257 melanoma
HCT-116 colon = test system: HCT-116 colon
RPMI-8226 leukemia = test system: RPMI-8226 leukemia
SW-620 colon = test system: SW-620 colon
NCI-H23 lung = test system: NCI-H23 lung
NCI/ADR-RES ovarian = test system: NCI/ADR-RES ovarian
SF-539 CNS = test system: SF-539 CNS
UACC-62 melanoma = test system: UACC-62 melanoma
U251 CNS = test system: U251 CNS
UO-31 renal = test system: UO-31 renal
NCI-H460 lung = test system: NCI-H460 lung
OVCAR-3 ovarian = test system: OVCAR-3 ovarian
HOP-62 NSCLC = test system: HOP-62 NSCLC
OVCAR-5 ovarian = test system: OVCAR-5 ovarian
LOX IMVI melanoma = test system: LOX IMVI melanoma
COLO 205 colon = test system: COLO 205 colon
SF-295 CNS = test system: SF-295 CNS
MCF7 breast = test system: MCF7 breast
HS 578T breast = test system: HS 578T breast
SNB-19 CNS = test system: SNB-19 CNS
A549 NSCLC = test system: A549 NSCLC
DU-145 prostate = test system: DU-145 prostate
SK-MEL-28 melanoma = test system: SK-MEL-28 melanoma
HL-60(TB) leukemia = test system: HL-60(TB) leukemia

Structure (SMILES): [N-]=[N+]=NC1=C(N=[N+]=[N-])c2cccc3cccc(c23)C1=O
- TGI (SN12C renal): > 100 µM
- TGI (MDA-N): > 100 µM
- TGI (IGROV1 ovarian): > 100 µM
- TGI (EKVX NSCLC): > 100 µM
- TGI (NCI-H226 lung): > 100 µM
- TGI (BT-549 breast): > 100 µM
- TGI (HOP-92 NSCLC): > 100 µM
- TGI (HT29 colon): > 100 µM
- TGI (OVCAR-8 ovarian): > 100 µM
- TGI (SNB-75 CNS): > 100 µM
- TGI (A498 renal): > 100 µM
- TGI (KM12 colon): > 100 µM
- TGI (MDA-MB-231 breast): > 100 µM
- TGI (SR leukemia): > 100 µM
- TGI (OVCAR-4 ovarian): > 100 µM
- TGI (T-47D breast): > 100 µM
- TGI (M14 melanoma): > 100 µM
- TGI (ACHN renal): > 100 µM
- TGI (SF-268 CNS): > 100 µM
- TGI (SK-MEL-2 melanoma): > 100 µM
- TGI (MALME-3M melanoma): > 100 µM
- TGI (CAKI-1 renal): > 100 µM
- TGI (HCT-15 colon): > 100 µM
- TGI (TK-10 renal): > 100 µM
- TGI (SK-OV-3 ovarian): > 100 µM
- TGI (K-562 leukemia): > 100 µM
- TGI (PC-3 prostate): > 100 µM
- TGI (SK-MEL-5 melanoma): > 100 µM
- TGI (HCC-2998 colon): > 100 µM
- TGI (NCI-H522 lung): > 100 µM
- TGI (CCRF-CEM leukemia): > 100 µM
- TGI (RXF 393 renal): > 100 µM
- TGI (786-0 renal): > 100 µM
- TGI (MDA-MB-435): > 100 µM
- TGI (MOLT-4 leukemia): > 100 µM
- TGI (UACC-257 melanoma): > 100 µM
- TGI (HCT-116 colon): > 100 µM
- TGI (RPMI-8226 leukemia): > 100 µM
- TGI (SW-620 colon): > 100 µM
- TGI (NCI-H23 lung): > 100 µM
- TGI (NCI/ADR-RES ovarian): > 100 µM
- TGI (SF-539 CNS): > 100 µM
- TGI (UACC-62 melanoma): > 100 µM
- TGI (U251 CNS): > 100 µM
- TGI (UO-31 renal): > 100 µM
- TGI (NCI-H460 lung): > 100 µM
- TGI (OVCAR-3 ovarian): > 100 µM
- TGI (HOP-62 NSCLC): > 100 µM
- TGI (OVCAR-5 ovarian): > 100 µM
- TGI (LOX IMVI melanoma): > 100 µM
- TGI (COLO 205 colon): > 100 µM
- TGI (SF-295 CNS): > 100 µM
- TGI (MCF7 breast): > 100 µM
- TGI (HS 578T breast): > 100 µM
- TGI (SNB-19 CNS): > 100 µM
- TGI (A549 NSCLC): > 100 µM

Structure (SMILES): CC(=O)Nc1ccc2c(c1)C(=Nc1ccc(C(=O)O)cc1)c1ccccc1-2
- TGI (SN12C renal): > 100 µM
- TGI (MDA-N): > 100 µM
- TGI (IGROV1 ovarian): > 100 µM
- TGI (EKVX NSCLC): 84.9 µM
- TGI (NCI-H226 lung): 87.1 µM
- TGI (BT-549 breast): > 100 µM
- TGI (HOP-92 NSCLC): > 100 µM
- TGI (HT29 colon): > 100 µM
- TGI (OVCAR-8 ovarian): > 100 µM
- TGI (DU-145 prostate): > 100 µM
- TGI (A498 renal): > 100 µM
- TGI (KM12 colon): > 100 µM
- TGI (OVCAR-4 ovarian): > 100 µM
- TGI (T-47D breast): > 100 µM
- TGI (M14 melanoma): > 100 µM
- TGI (ACHN renal): > 100 µM
- TGI (SF-268 CNS): > 100 µM
- TGI (MALME-3M melanoma): > 100 µM
- TGI (CAKI-1 renal): > 100 µM
- TGI (HCT-15 colon): > 100 µM
- TGI (TK-10 renal): > 100 µM
- TGI (SK-OV-3 ovarian): > 100 µM
- TGI (K-562 leukemia): > 100 µM
- TGI (PC-3 prostate): > 100 µM
- TGI (SK-MEL-5 melanoma): > 100 µM
- TGI (SK-MEL-28 melanoma): > 100 µM
- TGI (HCC-2998 colon): > 100 µM
- TGI (NCI-H522 lung): > 100 µM
- TGI (CCRF-CEM leukemia): > 100 µM
- TGI (RXF 393 renal): > 100 µM
- TGI (786-0 renal): > 100 µM
- TGI (MDA-MB-435): > 100 µM
- TGI (MOLT-4 leukemia): > 100 µM
- TGI (UACC-257 melanoma): > 100 µM
- TGI (HCT-116 colon): > 100 µM
- TGI (RPMI-8226 leukemia): > 100 µM
- TGI (SW-620 colon): > 100 µM
- TGI (NCI-H23 lung): > 100 µM
- TGI (NCI/ADR-RES ovarian): > 100 µM
- TGI (UACC-62 melanoma): > 100 µM
- TGI (U251 CNS): > 100 µM
- TGI (UO-31 renal): > 100 µM
- TGI (NCI-H460 lung): > 100 µM
- TGI (OVCAR-3 ovarian): > 100 µM
- TGI (HOP-62 NSCLC): > 100 µM
- TGI (OVCAR-5 ovarian): > 100 µM
- TGI (LOX IMVI melanoma): > 100 µM
- TGI (COLO 205 colon): > 100 µM
- TGI (SF-295 CNS): > 100 µM
- TGI (MCF7 breast): > 100 µM
- TGI (HS 578T breast): > 100 µM
- TGI (SNB-19 CNS): > 100 µM
- TGI (A549 NSCLC): > 100 µM

Structure (SMILES): Cc1c(O)c(OC2OC(CO)C(O)C(O)C2O)cc2c1CC[C@@H]1C2(C)C(=O)C[C@]2(C)[C@@H]([C@@](C)(O)C(O)CCC(C)(C)O)[C@H](O)C[C@@]12C (stereo partly specified)
- TGI (SN12C renal): > 100 µM
- TGI (MDA-N): > 100 µM
- TGI (IGROV1 ovarian): > 100 µM
- TGI (EKVX NSCLC): > 100 µM
- TGI (NCI-H226 lung): > 100 µM
- TGI (BT-549 breast): > 100 µM
- TGI (HOP-92 NSCLC): > 100 µM
- TGI (HT29 colon): > 100 µM
- TGI (OVCAR-8 ovarian): > 100 µM
- TGI (SNB-75 CNS): > 100 µM
- TGI (DU-145 prostate): > 100 µM
- TGI (A498 renal): > 100 µM
- TGI (KM12 colon): > 100 µM
- TGI (MDA-MB-231 breast): > 100 µM
- TGI (SR leukemia): > 100 µM
- TGI (OVCAR-4 ovarian): > 100 µM
- TGI (T-47D breast): > 100 µM
- TGI (M14 melanoma): > 100 µM
- TGI (ACHN renal): > 100 µM
- TGI (SF-268 CNS): > 100 µM
- TGI (SK-MEL-2 melanoma): > 100 µM
- TGI (MALME-3M melanoma): > 100 µM
- TGI (CAKI-1 renal): > 100 µM
- TGI (HCT-15 colon): > 100 µM
- TGI (TK-10 renal): > 100 µM
- TGI (SK-OV-3 ovarian): > 100 µM
- TGI (K-562 leukemia): > 100 µM
- TGI (PC-3 prostate): > 100 µM
- TGI (SK-MEL-5 melanoma): > 100 µM
- TGI (SK-MEL-28 melanoma): > 100 µM
- TGI (HCC-2998 colon): > 100 µM
- TGI (NCI-H522 lung): > 100 µM
- TGI (CCRF-CEM leukemia): > 100 µM
- TGI (RXF 393 renal): > 100 µM
- TGI (786-0 renal): > 100 µM
- TGI (MDA-MB-435): > 100 µM
- TGI (MOLT-4 leukemia): > 100 µM
- TGI (UACC-257 melanoma): > 100 µM
- TGI (HCT-116 colon): > 100 µM
- TGI (SW-620 colon): > 100 µM
- TGI (NCI-H23 lung): > 100 µM
- TGI (NCI/ADR-RES ovarian): > 100 µM
- TGI (SF-539 CNS): > 100 µM
- TGI (UACC-62 melanoma): > 100 µM
- TGI (U251 CNS): > 100 µM
- TGI (UO-31 renal): > 100 µM
- TGI (NCI-H460 lung): > 100 µM
- TGI (OVCAR-3 ovarian): > 100 µM
- TGI (HOP-62 NSCLC): > 100 µM
- TGI (OVCAR-5 ovarian): > 100 µM
- TGI (LOX IMVI melanoma): > 100 µM
- TGI (COLO 205 colon): > 100 µM
- TGI (SF-295 CNS): > 100 µM
- TGI (MCF7 breast): > 100 µM
- TGI (SNB-19 CNS): > 100 µM
- TGI (A549 NSCLC): > 100 µM
- TGI (HL-60(TB) leukemia): > 100 µM
